Assay results from US12226412B2, “Heteroaryl-ketone fused azadecalin glucocorticoid receptor modulators” (Corcept Therapeutics, Inc., priority 2012, dated 2025).
Read-outs that look alike come from different tables or passages of the source.

Tests used:
[1] = molecular target: T1, human recombinant GR (Homo sapiens, UniProt P04150); test: Human glucocorticoid receptor (GR) fluorescence polarisation (FP) binding assay
T1 construct: purchased PanVera P2812
T1 sequence (P04150 1-777): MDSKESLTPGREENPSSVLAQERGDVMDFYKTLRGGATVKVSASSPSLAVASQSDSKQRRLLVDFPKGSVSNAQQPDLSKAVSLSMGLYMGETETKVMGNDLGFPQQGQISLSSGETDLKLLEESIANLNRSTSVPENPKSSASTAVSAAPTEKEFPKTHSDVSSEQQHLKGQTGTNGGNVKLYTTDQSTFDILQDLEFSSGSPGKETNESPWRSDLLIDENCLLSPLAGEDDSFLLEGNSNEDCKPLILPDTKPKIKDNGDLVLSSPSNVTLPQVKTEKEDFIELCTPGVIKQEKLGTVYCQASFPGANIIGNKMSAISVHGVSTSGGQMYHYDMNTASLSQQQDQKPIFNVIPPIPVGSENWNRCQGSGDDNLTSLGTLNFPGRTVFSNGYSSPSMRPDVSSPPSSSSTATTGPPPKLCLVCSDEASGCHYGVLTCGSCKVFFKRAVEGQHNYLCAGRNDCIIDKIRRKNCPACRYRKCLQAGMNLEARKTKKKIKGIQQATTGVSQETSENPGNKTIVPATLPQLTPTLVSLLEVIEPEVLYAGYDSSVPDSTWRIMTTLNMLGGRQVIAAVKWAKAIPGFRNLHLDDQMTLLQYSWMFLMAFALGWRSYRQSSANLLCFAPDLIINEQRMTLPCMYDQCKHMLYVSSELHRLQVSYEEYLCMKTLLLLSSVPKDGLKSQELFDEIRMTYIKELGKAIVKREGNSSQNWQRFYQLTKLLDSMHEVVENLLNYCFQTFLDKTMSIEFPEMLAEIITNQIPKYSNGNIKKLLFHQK
In short: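 Competition fluorescence polarisation: 0.5 nM GS Red labelled glucocorticoid and 1 nM recombinant human GR with 8-point half-log compound series, 1% DMSO, 4 h room temperature, potassium phosphate pH 7.4 buffer with molybdate, EDTA, DTT. Affinity derived from the drop in polarisation, normalised to blank wells.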

[2] = system: induction of TAT by dexamethasone in HepG2 cells; test: HepG2 tyrosine aminotransferase (TAT) assay; format: cell-based, human
[3] = human recombinant GR, fluorescence polarisation binding assay, read-out: GR binding
[4] = HepG2 cells, challenge of 100 nM dexamethasone, Ki from IC50 by Cheng and Prusoff equation

Row | SMILES | Ki [1, 3] [nM] | Ki [2, 4] [nM] | Ki [1] [nM] | Ki [2] [nM]
1 | O=C(c1nccs1)[C@]12Cc3cnn(-c4ccc(F)cc4)c3C=C1CCN(S(=O)(=O)c1ccc(N3CCCC3)nc1)C2 [Example 4, (R)-(1-(4-fluorophenyl)-6-((6-(pyrrolidin-1-yl)pyridin-3-yl)sulfonyl)-4,4a,5,6,7,8-hexahydro-1H-pyrazolo[3,4-g]isoquinolin-4a-yl)(thiazol-2-yl)methanone] | < 0.5 | ≥ 100 |  | 
2 | Cc1ccnc(C(=O)[C@]23Cc4cnn(-c5ccc(F)cc5)c4C=C2CCN(S(=O)(=O)c2cccc(S(C)(=O)=O)c2)C3)c1 [Example 11AP, (R)-(1-(4-fluorophenyl)-6-((3-(methylsulfonyl)phenyl)sulfonyl)-4,4a,5,6,7,8-hexahydro-1H-pyrazolo[3,4-g]isoquinolin-4a-yl)(4-methylpyridin-2-yl)methanone] | < 0.5 | < 20 |  | 
3 | N#Cc1cccc(S(=O)(=O)N2CCC3=Cc4c(cnn4-c4ccc(F)cc4)C[C@]3(C(=O)c3ccccn3)C2)c1 [Example 11G, (R)-3-((1-(4-fluorophenyl)-4a-picolinoyl-4a,5,7,8-tetrahydro-1H-pyrazolo[3,4-g]isoquinolin-6 (4H)-yl)sulfonyl)benzonitrile] |  |  | < 0.5 | < 20
4 | COc1cccc(S(=O)(=O)N2CCC3=Cc4c(cnn4-c4ccc(F)cc4)C[C@]3(C(=O)c3ccccn3)C2)c1 [Example 2G, (R)-(1-(4-fluorophenyl)-6-((3-methoxyphenyl)sulfonyl)-4,4a,5,6,7,8-hexahydro-1H-pyrazolo[3,4-g]isoquinolin-4a-yl)(pyridin-2-yl)methanone] |  |  | < 0.5 | < 20
5 | COc1ccnc(C(=O)[C@]23Cc4cnn(-c5ccc(F)cc5)c4C=C2CCN(S(=O)(=O)c2cc(F)cc(F)c2)C3)c1 [Example 1K, (R)-(6-((3,5-difluorophenyl)sulfonyl)-1-(4-fluorophenyl)-4,4a,5,6,7,8-hexahydro-1H-pyrazolo[3,4-g]isoquinolin-4a-yl)(4-methoxypyridin-2-yl)methanone] | < 0.5 | < 20 |  | 
6 | O=C(c1cc(C(F)(F)F)ccn1)[C@]12Cc3cnn(-c4ccc(F)cc4)c3C=C1CCN(S(=O)(=O)c1c[nH]cn1)C2 [Example 2W, (R)-(6-((1H-imidazol-4-yl)sulfonyl)-1-(4-fluorophenyl)-4,4a,5,6,7,8-hexahydro-1H-pyrazolo[3,4-g]isoquinolin-4a-yl)(4-(trifluoromethyl)pyridin-2-yl)methanone] | > 1 | 20 to 100 |  | 
7 | O=C(c1ccccn1)[C@]12Cc3cnn(-c4ccc(F)cc4)c3C=C1CCN(S(=O)(=O)c1ccc(F)c(F)c1F)C2 [Example 11AC, (R)-(1-(4-fluorophenyl)-6-((2,3,4-trifluorophenyl)sulfonyl)-4,4a,5,6,7,8-hexahydro-1H-pyrazolo[3,4-g]isoquinolin-4a-yl)(pyridin-2-yl)methanone] | < 0.5 | < 20 |  | 
8 | Cc1ccnc(C(=O)[C@]23Cc4cnn(-c5ccc(F)cc5)c4C=C2CCN(S(=O)(=O)c2cn(C)nc2C)C3)c1 [Example 11AQ, (R)-(6-((1,3-dimethyl-1H-pyrazol-4-yl)sulfonyl)-1-(4-fluorophenyl)-4,4a,5,6,7,8-hexahydro-1H-pyrazolo[3,4-g]isoquinolin-4a-yl)(4-methylpyridin-2-yl)methanone] | < 0.5 | 20 to 100 |  | 

The next lines start with results.

Row | Ki [1, 3] [nM] | SMILES | Ki [2, 4] [nM] | Ki [1] [nM] | Ki [2] [nM]
9 | < 0.5 | CCCn1cc(S(=O)(=O)N2CCC3=Cc4c(cnn4-c4ccc(F)cc4)C[C@]3(C(=O)c3cc(C(F)(F)F)ccn3)C2)cn1 [Example 11CX, (R)-(1-(4-fluorophenyl)-6-((1-propyl-1H-pyrazol-4-yl)sulfonyl)-4,4a,5,6,7,8-hexahydro-1H-pyrazolo[3,4-g]isoquinolin-4a-yl)(4-(trifluoromethyl)pyridin-2-yl)methanone] | < 20 |  | 
10 | < 0.5 | CCn1nccc1S(=O)(=O)N1CCC2=Cc3c(cnn3-c3ccc(F)cc3)C[C@]2(C(=O)c2cscn2)C1 [Example 11CW, (R)-(6-((1-ethyl-1H-pyrazol-5-yl)sulfonyl)-1-(4-fluorophenyl)-4,4a,5,6,7,8-hexahydro-1H-pyrazolo[3,4-g]isoquinolin-4a-yl)(thiazol-4-yl)methanone] | 20 to 100 |  | 
11 | < 0.5 | CC(C)n1cc(S(=O)(=O)N2CCC3=Cc4c(cnn4-c4ccc(F)cc4)C[C@]3(C(=O)c3ccccn3)C2)nn1 [Example 11CV, (R)-(1-(4-fluorophenyl)-6-((1-isopropyl-1H-1,2,3-triazol-4-yl)sulfonyl)-4,4a,5,6,7,8-hexahydro-1H-pyrazolo[3,4-g]isoquinolin-4a-yl)(pyridin-2-yl)methanone] | 20 to 100 |  | 
12 | < 0.5 | Cc1cccc(S(=O)(=O)N2CCC3=Cc4c(cnn4-c4ccc(F)cc4)C[C@]3(C(=O)c3cccc(C)n3)C2)c1 [Example 12H, (R)-(1-(4-fluorophenyl)-6-(m-tolylsulfonyl)-4,4a,5,6,7,8-hexahydro-1H-pyrazolo[3,4-g]isoquinolin-4a-yl)(6-methylpyridin-2-yl)methanone] | < 20 |  | 
13 | < 0.5 | Cc1cc(C)cc(S(=O)(=O)N2CCC3=Cc4c(cnn4-c4ccc(F)cc4)C[C@]3(C(=O)c3ccccn3)C2)c1 [Example 11N, (R)-(6-((3,5-dimethylphenyl)sulfonyl)-1-(4-fluorophenyl)-4,4a,5,6,7,8-hexahydro-1H-pyrazolo[3,4-g]isoquinolin-4a-yl)(pyridin-2-yl)methanone] | < 20 |  | 
14 | < 0.5 | Cn1ccc(S(=O)(=O)N2CCC3=Cc4c(cnn4-c4ccc(F)cc4)C[C@]3(C(=O)c3ccccn3)C2)n1 [Example 11BJ, (R)-(1-(4-fluorophenyl)-6-((1-methyl-1H-pyrazol-3-yl)sulfonyl)-4,4a,5,6,7,8-hexahydro-1H-pyrazolo[3,4-g]isoquinolin-4a-yl)(pyridin-2-yl)methanone] | 20 to 100 |  | 
15 | > 1 | Cn1ccc(S(=O)(=O)N2CCC3=Cc4c(cnn4-c4ccc(C(F)(F)F)cc4)C[C@]3(C(=O)c3ccccn3)C2)n1 [Example 11BT, (R)-(6-((1-methyl-1H-pyrazol-3-yl)sulfonyl)-1-(4-(trifluoromethyl)phenyl)-4,4a,5,6,7,8-hexahydro-1H-pyrazolo[3,4-g]isoquinolin-4a-yl)(pyridin-2-yl)methanone] | ≥ 100 |  | 
16 | < 0.5 | Cc1ccnc(C(=O)[C@]23Cc4cnn(-c5ccc(F)cc5)c4C=C2CCN(S(=O)(=O)c2cc(C)nn2C)C3)c1 [Example 11BA, (R)-(6-((1,3-dimethyl-1H-pyrazol-5-yl)sulfonyl)-1-(4-fluorophenyl)-4,4a,5,6,7,8-hexahydro-1H-pyrazolo[3,4-g]isoquinolin-4a-yl)(4-methylpyridin-2-yl)methanone] | < 20 |  | 
17 | < 0.5 | Cc1ccnc(C(=O)[C@]23Cc4cnn(-c5ccc(F)cc5)c4C=C2CCN(S(=O)(=O)c2ccc4c(c2)OCCO4)C3)c1 [Example 11AR, (R)-(6-((2,3-dihydrobenzo[b][1,4]dioxin-6-yl)sulfonyl)-1-(4-fluorophenyl)-4,4a,5,6,7,8-hexahydro-1H-pyrazolo[3,4-g]isoquinolin-4a-yl)(4-methylpyridin-2-yl)methanone] | < 20 |  | 
18 | < 0.5 | Cn1ncc(S(=O)(=O)N2CCC3=Cc4c(cnn4-c4ccc(F)cc4)C[C@]3(C(=O)c3cc(C(F)(F)F)ccn3)C2)n1 [Example 11CE, (R)-(1-(4-fluorophenyl)-6-((2-methyl-2H-1,2,3-triazol-4-yl)sulfonyl)-4,4a,5,6,7,8-hexahydro-1H-pyrazolo[3,4-g]isoquinolin-4a-yl)(4-(trifluoromethyl)pyridin-2-yl)methanone] | < 20 |  | 
